System: subjects with moderate-to-severe plaque psoriasis
Test: Suicidal ideation or behavior (Columbia-Suicide Severity Rating Scale)
[1] = Combined (all regimens), Week 16-56
[2] = Placebo → 100 mg QD, Week 16-56
[3] = Placebo → 100 mg QD, through Week 56

Experimental: Adverse events were reported and followed by the investigator. Any clinically relevant changes occurring during the study were recorded. Any clinically significant abnormalities persisting at the end of the study/early withdrawal were followed by the investigator until resolution or until a clinically stable condition was reached if possible. The evaluations of safety and tolerability include: physical examinations, vital signs, electrocardiograms, clinical safety laboratory assessments, review of concomitant medication, pregnancy testing, suicidal ideation evaluation via the Columbia—Suicide Severity Rating Scale, and tuberculosis evaluation.

CC(=O)NCCCC[C@@H]1NC(=O)[C@H](Cc2c[nH]c3c(C)cccc23)NC(=O)[C@H]([C@@H](C)O)NC(=O)[C@H](CC(N)=O)NC(=O)[C@@H](NC(C)=O)C(C)(C)SSC(C)(C)[C@@H](C(=O)N[C@@H](Cc2ccc(OCCN)cc2)C(=O)N[C@@H](Cc2ccc3ccccc3c2)C(=O)NC2(C(=O)N[C@@H](CCC(=O)O)C(=O)N[C@@H](CC(N)=O)C(=O)N[C@@H](Cc3cccnc3)C(=O)N(C)CC(N)=O)CCOCC2)NC1=O [IL-23 receptor antagonist peptide, Ac-[Pen]*-N-T-[W(7-Me)]-[Lys(Ac)]-[Pen]*-Phe[4-(2-aminoethoxy)]-[2-Nal]-[THP]-E-N-[3-Pal]-Sarc-NH2 (*[Pen]-[Pen]* formdisulfidebond)]
0: Subjects with 1 - Wish to be dead (25 mg BID, Week 16-56) | Subjects with 2 - Non-specific active suicidal thoughts (25 mg BID, Week 16-56) | Subjects with 3 - Active suicidal ideation with any methods (not plan) without intent to act (25 mg BID, Week 16-56) | Subjects with 4 - Active suicidal ideation with some intent to act, without specific plan (25 mg BID, Week 16-56) | Subjects with 5 - Active suicidal ideation with specific plan and intent (25 mg BID, Week 16-56) | Subjects with 6 - Preparatory acts or behavior (25 mg BID, Week 16-56) | Subjects with 7 - Aborted attempt (25 mg BID, Week 16-56) | Subjects with 8 - Interrupted attempt (25 mg BID, Week 16-56) | Subjects with 9 - Non-fatal suicide attempt (25 mg BID, Week 16-56) | Subjects with 10 - Completed suicide (25 mg BID, Week 16-56) | Subjects with suicidal behavior (25 mg BID, Week 16-56) | Subjects with suicidal ideation (25 mg BID, Week 16-56) | Subjects with suicidal ideation or behavior (25 mg BID, Week 16-56) | Subjects with 1 - Wish to be dead (25 mg BID, through Week 56) | Subjects with 2 - Non-specific active suicidal thoughts (25 mg BID, through Week 56) | Subjects with 3 - Active suicidal ideation with any methods (not plan) without intent to act (25 mg BID, through Week 56) | Subjects with 4 - Active suicidal ideation with some intent to act, without specific plan (25 mg BID, through Week 56) | Subjects with 5 - Active suicidal ideation with specific plan and intent (25 mg BID, through Week 56) | Subjects with 6 - Preparatory acts or behavior (25 mg BID, through Week 56) | Subjects with 7 - Aborted attempt (25 mg BID, through Week 56) | Subjects with 8 - Interrupted attempt (25 mg BID, through Week 56) | Subjects with 9 - Non-fatal suicide attempt (25 mg BID, through Week 56) | Subjects with 10 - Completed suicide (25 mg BID, through Week 56) | Subjects with suicidal behavior (25 mg BID, through Week 56) | Subjects with suicidal ideation (25 mg BID, through Week 56) | Subjects with suicidal ideation or behavior (25 mg BID, through Week 56) | Subjects with 1 - Wish to be dead (25 mg QD, through Week 56) | Subjects with 2 - Non-specific active suicidal thoughts (25 mg QD, through Week 56) | Subjects with 3 - Active suicidal ideation with any methods (not plan) without intent to act (25 mg QD, through Week 56) | Subjects with 4 - Active suicidal ideation with some intent to act, without specific plan (25 mg QD, through Week 56) | Subjects with 5 - Active suicidal ideation with specific plan and intent (25 mg QD, through Week 56) | Subjects with 6 - Preparatory acts or behavior (25 mg QD, through Week 56) | Subjects with 7 - Aborted attempt (25 mg QD, through Week 56) | Subjects with 8 - Interrupted attempt (25 mg QD, through Week 56) | Subjects with 9 - Non-fatal suicide attempt (25 mg QD, through Week 56) | Subjects with 10 - Completed suicide (25 mg QD, through Week 56) | Subjects with suicidal behavior (25 mg QD, through Week 56) | Subjects with suicidal ideation (25 mg QD, through Week 56) | Subjects with suicidal ideation or behavior (25 mg QD, through Week 56) | Subjects with 1 - Wish to be dead (25 mg QD, Week 16-56) | Subjects with 2 - Non-specific active suicidal thoughts (25 mg QD, Week 16-56) | Subjects with 3 - Active suicidal ideation with any methods (not plan) without intent to act (25 mg QD, Week 16-56) | Subjects with 4 - Active suicidal ideation with some intent to act, without specific plan (25 mg QD, Week 16-56) | Subjects with 5 - Active suicidal ideation with specific plan and intent (25 mg QD, Week 16-56) | Subjects with 6 - Preparatory acts or behavior (25 mg QD, Week 16-56) | Subjects with 7 - Aborted attempt (25 mg QD, Week 16-56) | Subjects with 8 - Interrupted attempt (25 mg QD, Week 16-56) | Subjects with 9 - Non-fatal suicide attempt (25 mg QD, Week 16-56) | Subjects with 10 - Completed suicide (25 mg QD, Week 16-56) | Subjects with suicidal behavior (25 mg QD, Week 16-56) | Subjects with suicidal ideation (25 mg QD, Week 16-56) | Subjects with suicidal ideation or behavior (25 mg QD, Week 16-56) | Subjects with 1 - Wish to be dead (50 mg QD, Week 16-56) | Subjects with 2 - Non-specific active suicidal thoughts (50 mg QD, Week 16-56) | Subjects with 3 - Active suicidal ideation with any methods (not plan) without intent to act (50 mg QD, Week 16-56) | Subjects with 4 - Active suicidal ideation with some intent to act, without specific plan (50 mg QD, Week 16-56) | Subjects with 5 - Active suicidal ideation with specific plan and intent (50 mg QD, Week 16-56) | Subjects with 6 - Preparatory acts or behavior (50 mg QD, Week 16-56) | Subjects with 7 - Aborted attempt (50 mg QD, Week 16-56) | Subjects with 8 - Interrupted attempt (50 mg QD, Week 16-56) | Subjects with 9 - Non-fatal suicide attempt (50 mg QD, Week 16-56) | Subjects with 10 - Completed suicide (50 mg QD, Week 16-56) | Subjects with suicidal behavior (50 mg QD, Week 16-56) | Subjects with suicidal ideation (50 mg QD, Week 16-56) | Subjects with suicidal ideation or behavior (50 mg QD, Week 16-56) | Subjects with 1 - Wish to be dead (50 mg QD, through Week 56) | Subjects with 2 - Non-specific active suicidal thoughts (50 mg QD, through Week 56) | Subjects with 3 - Active suicidal ideation with any methods (not plan) without intent to act (50 mg QD, through Week 56) | Subjects with 4 - Active suicidal ideation with some intent to act, without specific plan (50 mg QD, through Week 56) | Subjects with 5 - Active suicidal ideation with specific plan and intent (50 mg QD, through Week 56) | Subjects with 6 - Preparatory acts or behavior (50 mg QD, through Week 56) | Subjects with 7 - Aborted attempt (50 mg QD, through Week 56) | Subjects with 8 - Interrupted attempt (50 mg QD, through Week 56) | Subjects with 9 - Non-fatal suicide attempt (50 mg QD, through Week 56) | Subjects with 10 - Completed suicide (50 mg QD, through Week 56) | Subjects with suicidal behavior (50 mg QD, through Week 56) | Subjects with suicidal ideation (50 mg QD, through Week 56) | Subjects with suicidal ideation or behavior (50 mg QD, through Week 56) | Subjects with 1 - Wish to be dead (100 mg BID, Week 16-56) | Subjects with 2 - Non-specific active suicidal thoughts (100 mg BID, Week 16-56) | Subjects with 3 - Active suicidal ideation with any methods (not plan) without intent to act (100 mg BID, Week 16-56) | Subjects with 4 - Active suicidal ideation with some intent to act, without specific plan (100 mg BID, Week 16-56) | Subjects with 5 - Active suicidal ideation with specific plan and intent (100 mg BID, Week 16-56) | Subjects with 6 - Preparatory acts or behavior (100 mg BID, Week 16-56) | Subjects with 7 - Aborted attempt (100 mg BID, Week 16-56) | Subjects with 8 - Interrupted attempt (100 mg BID, Week 16-56) | Subjects with 9 - Non-fatal suicide attempt (100 mg BID, Week 16-56) | Subjects with 10 - Completed suicide (100 mg BID, Week 16-56) | Subjects with suicidal behavior (100 mg BID, Week 16-56) | Subjects with suicidal ideation (100 mg BID, Week 16-56) | Subjects with suicidal ideation or behavior (100 mg BID, Week 16-56) | Subjects with 1 - Wish to be dead (100 mg BID, through Week 56) | Subjects with 2 - Non-specific active suicidal thoughts (100 mg BID, through Week 56) | Subjects with 3 - Active suicidal ideation with any methods (not plan) without intent to act (100 mg BID, through Week 56) | Subjects with 4 - Active suicidal ideation with some intent to act, without specific plan (100 mg BID, through Week 56) | Subjects with 5 - Active suicidal ideation with specific plan and intent (100 mg BID, through Week 56) | Subjects with 6 - Preparatory acts or behavior (100 mg BID, through Week 56) | Subjects with 7 - Aborted attempt (100 mg BID, through Week 56) | Subjects with 8 - Interrupted attempt (100 mg BID, through Week 56) | Subjects with 9 - Non-fatal suicide attempt (100 mg BID, through Week 56) | Subjects with 10 - Completed suicide (100 mg BID, through Week 56) | Subjects with suicidal behavior (100 mg BID, through Week 56) | Subjects with suicidal ideation (100 mg BID, through Week 56) | Subjects with suicidal ideation or behavior (100 mg BID, through Week 56) | Subjects with 1 - Wish to be dead (100 mg QD, Week 16-56) | Subjects with 2 - Non-specific active suicidal thoughts (100 mg QD, Week 16-56) | Subjects with 3 - Active suicidal ideation with any methods (not plan) without intent to act (100 mg QD, Week 16-56) | Subjects with 4 - Active suicidal ideation with some intent to act, without specific plan (100 mg QD, Week 16-56) | Subjects with 5 - Active suicidal ideation with specific plan and intent (100 mg QD, Week 16-56) | Subjects with 6 - Preparatory acts or behavior (100 mg QD, Week 16-56) | Subjects with 7 - Aborted attempt (100 mg QD, Week 16-56) | Subjects with 8 - Interrupted attempt (100 mg QD, Week 16-56) | Subjects with 9 - Non-fatal suicide attempt (100 mg QD, Week 16-56) | Subjects with 10 - Completed suicide (100 mg QD, Week 16-56) | Subjects with suicidal behavior (100 mg QD, Week 16-56) | Subjects with suicidal ideation (100 mg QD, Week 16-56) | Subjects with 1 - Wish to be dead (100 mg QD, through Week 56) | Subjects with 2 - Non-specific active suicidal thoughts (100 mg QD, through Week 56) | Subjects with 3 - Active suicidal ideation with any methods (not plan) without intent to act (100 mg QD, through Week 56) | Subjects with 4 - Active suicidal ideation with some intent to act, without specific plan (100 mg QD, through Week 56) | Subjects with 5 - Active suicidal ideation with specific plan and intent (100 mg QD, through Week 56) | Subjects with 6 - Preparatory acts or behavior (100 mg QD, through Week 56) | Subjects with 7 - Aborted attempt (100 mg QD, through Week 56) | Subjects with 8 - Interrupted attempt (100 mg QD, through Week 56) | Subjects with 10 - Completed suicide (100 mg QD, through Week 56) | Subjects with suicidal ideation (100 mg QD, through Week 56) | Subjects with 1 - Wish to be dead [1] | Subjects with 2 - Non-specific active suicidal thoughts [1] | Subjects with 3 - Active suicidal ideation with any methods (not plan) without intent to act [1] | Subjects with 4 - Active suicidal ideation with some intent to act, without specific plan [1] | Subjects with 5 - Active suicidal ideation with specific plan and intent [1] | Subjects with 6 - Preparatory acts or behavior [1] | Subjects with 7 - Aborted attempt [1] | Subjects with 8 - Interrupted attempt [1] | Subjects with 9 - Non-fatal suicide attempt [1] | Subjects with 10 - Completed suicide [1] | Subjects with suicidal behavior [1] | Subjects with suicidal ideation [1] | Subjects with 1 - Wish to be dead (Combined, through Week 56) | Subjects with 2 - Non-specific active suicidal thoughts (Combined, through Week 56) | Subjects with 3 - Active suicidal ideation with any methods (not plan) without intent to act (Combined, through Week 56) | Subjects with 4 - Active suicidal ideation with some intent to act, without specific plan (Combined, through Week 56) | Subjects with 5 - Active suicidal ideation with specific plan and intent (Combined, through Week 56) | Subjects with 6 - Preparatory acts or behavior (Combined, through Week 56) | Subjects with 7 - Aborted attempt (Combined, through Week 56) | Subjects with 8 - Interrupted attempt (Combined, through Week 56) | Subjects with 10 - Completed suicide (Combined, through Week 56) | Subjects with suicidal ideation (Combined, through Week 56) | Subjects with 1 - Wish to be dead [2] | Subjects with 2 - Non-specific active suicidal thoughts [2] | Subjects with 3 - Active suicidal ideation with any methods (not plan) without intent to act [2] | Subjects with 4 - Active suicidal ideation with some intent to act, without specific plan [2] | Subjects with 5 - Active suicidal ideation with specific plan and intent [2] | Subjects with 6 - Preparatory acts or behavior [2] | Subjects with 7 - Aborted attempt [2] | Subjects with 8 - Interrupted attempt [2] | Subjects with 9 - Non-fatal suicide attempt [2] | Subjects with 10 - Completed suicide [2] | Subjects with suicidal behavior [2] | Subjects with suicidal ideation [2] | Subjects with suicidal ideation or behavior [2] | Subjects with 1 - Wish to be dead [3] | Subjects with 2 - Non-specific active suicidal thoughts [3] | Subjects with 3 - Active suicidal ideation with any methods (not plan) without intent to act [3] | Subjects with 4 - Active suicidal ideation with some intent to act, without specific plan [3] | Subjects with 5 - Active suicidal ideation with specific plan and intent [3] | Subjects with 6 - Preparatory acts or behavior [3] | Subjects with 7 - Aborted attempt [3] | Subjects with 8 - Interrupted attempt [3] | Subjects with 9 - Non-fatal suicide attempt [3] | Subjects with 10 - Completed suicide [3] | Subjects with suicidal behavior [3] | Subjects with suicidal ideation [3] | Subjects with suicidal ideation or behavior [3]

— patent publication US20260232767A1, “INTERLEUKIN-23 RECEPTOR ANTAGONIST PEPTIDES FOR USE IN THE TREATMENT OF PSORIASIS” (Janssen Pharmaceutica NV, priority 2023, published 2026)
